In US20100120776A1, “Carbocysteine medical foods” (Hall Bioscience Corporation, priority 2008, published 2010):

Key:
in vivo = details: beagle, dog, plasma
Experimental: (§1) A study was conducted in dogs to determine the pharmacokinetics and bioavailability of a buccal formulation of carbocysteine in comparison to oral and IV routes of administration.
(§2) The study was conducted according to the following methodology. A 400 mg dissolving tablet, a 400 mg oral tablet, and a 200 mg IV dose of carbocysteine were administered to each of five beagle dogs in a randomized crossover pattern. […] The dissolving tablet was administered to the animal by placing the tablet in the mouth until it dissolved. The oral tablet was administered by forcing the animal to swallow the tablet. […] Plasma concentrations were measured by precolumn derivatization of S-carboxymethylcysteine using o-phthaldialdehyde (OPA) and subsequent HPLC analysis. All data were analyzed using WinNonlin®, a tool for pharmacokinetic and pharmacodynamic analysis. The carbocysteine plasma data was fitted to a one-compartment model with first-order elimination. The pharmacokinetic parameters (t1/2, CL, Vd) generated from each route of administration were compared using analysis of variance (ANOVA) to detect statistically significant differences. A paired t-test was used to detect the differences in Cmax, Tmax, Ka, and F between buccal and oral routes of administration.

[1] = Buccal availability study: pharmacokinetics and bioavailability of carbocysteine in dogs (buccal vs oral vs IV); details: beagle dogs; range across buccal and oral routes; no significant differences
Experimental: as §1, §2

Vd (in vivo): 0.405 to 0.418 L/kg
clearance (in vivo): 4.52 to 4.64 mL/min/kg
half-life (in vivo): 1.02 to 1.07 h
Tmax (in vivo; 400 mg): 1.5 to 1.55 h
Ka [1]: 0.028−0.034 min^−1
Structure (SMILES): N[C@@H](CSCC(=O)O)C(=O)O [carbocysteine, S-carboxymethyl-L-cysteine]
